Laboratory results as given in US8389679B2, “Targeted antimicrobial moieties” (priority 2009, dated 2013).
“Also recorded” adds a separate entry of the source.

What follows are substances tested on target microorganisms (assay: Screen of synthesized peptides for binding to target microorganisms (targeting peptides, Tables 2 and 3)). Settings: microorganism(s) the targeting peptide was identified as binding to (Table 3).
Method: Once noted, these peptides were batch synthesized on a multiplex peptide synthesizer, yielding 5-10 mg of each peptide that could readily be screened for biological activity (e.g., binding activity and/or antimicrobial activity.
Other suitable targeting peptides include the peptides that have been identified as binding to particular target organisms as shown in Table 3 and/or Table 4.
“1T-105 (GEGLPPPVLHLPPPRMSGR; synthetic novel tartgeting peptide IT-105)” was tested, and the “Target(s)” value was “S. epidermidis, S. gordonii,; also recorded: S. mitis, S. mutans,; also recorded: S. oralis”. For “1T-106 (DALRRSRSQGRRHR; synthetic novel tartgeting peptide IT-106)”, the “Target(s)” value was “S. gordonii, S. mitis, S. mutans,; also recorded: S. oralis, S. salivarious”. “1T-107 (SPVPRFTAVGGVSRGSP; synthetic novel tartgeting peptide IT-107)” was tested, and the “Target(s)” value was “A. naeslundiiS. epidermidis,; also recorded: S. gordonii,; also recorded: S. mitis, S. mutans, S. oralis,; also recorded: S. salivarious, S. sanguinis”. In the case of “1T-108 (WGPLGPERPLW; synthetic novel tartgeting peptide IT-108)”, the “Target(s)” value is reported as “S. gordonii, S. mitis, S. mutans,; also recorded: S. oralis, S. salivarious,; also recorded: S. sanguinis”. “1T-109 (VTTNVRQGAGS; synthetic novel tartgeting peptide IT-109)” was tested, and the “Target(s)” value was “A. naeslundiiS. epidermidis,; also recorded: S. gordonii,; also recorded: S. mitis, S. mutans, S. oralis,; also recorded: S. salivarious, S. sanguinis”. With “1T-110 (LAAKTAVCVGRAFM; synthetic novel tartgeting peptide IT-110)” the “Target(s)” value was “A. naeslundii, P. gingivalis; also recorded: S. epidermidis,; also recorded: S. gordonii, S. mitis, S. mutans,; also recorded: S. oralis, S. sanguinis”. “1T-111 (GRLSRREEDPATSIILLRGAYRMAVF; synthetic novel tartgeting peptide IT-111)” was tested, and the “Target(s)” value was “A. naeslundii, F. nucleatum,; also recorded: P. gingivalis; also recorded: S. epidermidis,; also recorded: S. gordonii, S. mitis, S. mutans,; also recorded: S. oralis, S. salivarious,; also recorded: S. sanguinis”. “1T-112 (SDNDGKLILGTSQ; synthetic novel tartgeting peptide IT-112)” was tested, and the “Target(s)” value was “S. gordonii”. “1T-113 (HGAHQRTGQRLHHHRGRTVSGCRQNPVAGVDPDEHR; synthetic novel tartgeting peptide IT-113)” was tested, and the “Target(s)” value was “S. mitis”. For “1T-114 (RQAPGPGLVTITAACSAPGSRSR; synthetic novel tartgeting peptide IT-114)”, the “Target(s)” value was “A. naeslundii, P. gingivalis; also recorded: S. epidermidis,; also recorded: S. gordonii, S. mitis, S. mutans,; also recorded: S. oralis, S. sanguinis”. For “1T-115 (LLIERFSNHH; synthetic novel tartgeting peptide IT-115)”, the “Target(s)” value was “A. naeslundii, F. nucleatum,; also recorded: P. gingivalis; also recorded: S. epidermidis,; also recorded: S. gordonii, S. mitis, S. mutans,; also recorded: S. oralis, S. salivarious,; also recorded: S. sanguinis”. In the case of “1T-116 (MILHRRRDR; synthetic novel tartgeting peptide IT-116)”, the “Target(s)” value is reported as “A. naeslundii, P. gingivalis; also recorded: S. epidermidis,; also recorded: S. gordonii, S. mitis, S. mutans,; also recorded: S. oralis, S. salivarious,; also recorded: S. sanguinis”. With “1T-117 (GPGVVGPAPFSRLPAHALNL; synthetic novel tartgeting peptide IT-117)” the “Target(s)” value was “S. mutans”. For “1T-118 (TASPPAPSDQGLRTAFPATLLIALAALARISR; synthetic novel tartgeting peptide IT-118)”, the “Target(s)” value was “A. naeslundii, F. nucleatum,; also recorded: P. gingivalis; also recorded: S. epidermidis,; also recorded: S. gordonii, S. mitis, S. mutans,; also recorded: S. oralis, S. salivarious,; also recorded: S. sanguinis”. For “1T-119 (SPATQKAPTRAQPSRAPVQDCGDGRPTAAPDDVERLSPR; synthetic novel tartgeting peptide IT-119)”, the “Target(s)” value was “S. gordonii, S. mitis, S. mutans,; also recorded: S. oralis”. For “1T-120 (DVRDRVDLAGADLCAAHATR; synthetic novel tartgeting peptide IT-120)”, the “Target(s)” value was “A. naeslundii, F. nucleatum,; also recorded: P. gingivalis; also recorded: S. epidermidis,; also recorded: S. gordonii, S. mitis, S. mutans,; also recorded: S. oralis, S. salivarious,; also recorded: S. sanguinis”. In the case of “1T-121 (FAKETGFGIGGAQEGWWIIADIYGPNPF; synthetic novel tartgeting peptide IT-121)”, the “Target(s)” value is reported as “S. gordonii, S. mitis, S. mutans,; also recorded: S. oralis, S. salivarious,; also recorded: S. sanguinis”. With “1T-122 (GAIPDPVTHRVDWEEDHQTRPSR; synthetic novel tartgeting peptide IT-122)” the “Target(s)” value was “S. mitis”. With “1T-123 (LVRRNAVAGRSDGLAGAEQLDLVRLQGVL; synthetic novel tartgeting peptide IT-123)” the “Target(s)” value was “S. gordonii”. “1T-124 (LFDERNKIA; synthetic novel tartgeting peptide IT-124)” was tested, and the “Target(s)” value was “S. mitis, S. mutans, S. oralis”. In the case of “1T-125 (DAITGGNPPLSDTDGLRP; synthetic novel tartgeting peptide IT-125)”, the “Target(s)” value is reported as “S. epidermidis, S. gordonii,; also recorded: S. mutans, S. oralis”. For “1T-126 (QGLARPVLRRIPL; synthetic novel tartgeting peptide IT-126)”, the “Target(s)” value was “S. gordonii, S. mitis, S. mutans”. With “1T-127 (YDPVPKRKNKNSEGKREE; synthetic novel tartgeting peptide IT-127)” the “Target(s)” value was “A. naeslundii, F. nucleatum,; also recorded: P. gingivalis,; also recorded: T. denticolaS. gordonii,; also recorded: S. mitis, S. mutans, S. oralis,; also recorded: S. salivarious, S. sanguinis”. With “1T-128 (SGSAIRMLEIATKMLKR; synthetic novel tartgeting peptide IT-128)” the “Target(s)” value was “A. naeslundii, P. gingivalis; also recorded: S. epidermidis,; also recorded: S. gordonii, S. mitis, S. mutans,; also recorded: S. oralis, S. salivarious,; also recorded: S. sanguinis”. For “1T-129 (YDKYIKYLSIQPPFIVYFI; synthetic novel tartgeting peptide IT-129)”, the “Target(s)” value was “A. naeslundii, P. gingivalis; also recorded: S. epidermidis,; also recorded: S. gordonii, S. mitis, S. mutans,; also recorded: S. oralis, S. salivarious,; also recorded: S. sanguinis”. With “1T-130 (QKIIDMSKFLFSLILFIMIVVIYIGKSIGGYSAIVSSIMLELDTVLYNKKIFFIYK; synthetic novel tartgeting peptide IT-130)” the “Target(s)” value was “A. naeslundii, F. nucleatum,; also recorded: P. gingivalis; also recorded: S. epidermidis,; also recorded: S. gordonii, S. mitis, S. mutans,; also recorded: S. oralis, S. salivarious,; also recorded: S. sanguinis”. For “1T-131 (DEVWKMLGI; synthetic novel tartgeting peptide IT-131)”, the “Target(s)” value was “A. naeslundii, F. nucleatum,; also recorded: P. gingivalis,; also recorded: T. denticolaS. gordonii,; also recorded: S. mitis, S. mutans, S. oralis,; also recorded: S. salivarious, S. sanguinis”. With “1T-132 (YSKKLFEYFYFIIFILIRYLIFYKIIQNKNYYINNIAYN; synthetic novel tartgeting peptide IT-132)” the “Target(s)” value was “A. naeslundii, F. nucleatum,; also recorded: P. gingivalis; also recorded: S. epidermidis,; also recorded: S. gordonii, S. mitis, S. mutans,; also recorded: S. oralis, S. salivarious,; also recorded: S. sanguinis”. For “1T-133 (YFIKDDNEALSKDWEVIGNDLKGTIDKYGKEFKVR; synthetic novel tartgeting peptide IT-133)”, the “Target(s)” value was “A. naeslundii, P. gingivalis; also recorded: S. epidermidis,; also recorded: S. gordonii, S. mitis, S. mutans,; also recorded: S. oralis, S. salivarious,; also recorded: S. sanguinis”. In the case of “1T-134 (SRLVREIKKKCRKS; synthetic novel tartgeting peptide IT-134)”, the “Target(s)” value is reported as “A. naeslundii, F. nucleatum,; also recorded: P. gingivalis; also recorded: S. epidermidis,; also recorded: S. gordonii, S. mitis, S. mutans,; also recorded: S. oralis, S. salivarious,; also recorded: S. sanguinis”. “1T-135 (FESLLPQATKKIVNNKGSKINKIF; synthetic novel tartgeting peptide IT-135)” was tested, and the “Target(s)” value was “A. naeslundii, P. gingivalis; also recorded: S. epidermidis,; also recorded: S. gordonii, S. mitis, S. mutans,; also recorded: S. oralis, S. salivarious,; also recorded: S. sanguinis”. “1T-136 (ELLTQIRLALLYSVNEW; synthetic novel tartgeting peptide IT-136)” was tested, and the “Target(s)” value was “A. naeslundii, F. nucleatum,; also recorded: P. gingivalis,; also recorded: S. epidermidis, S. gordonii,; also recorded: S. mitis, S. mutans,; also recorded: S. oralis, S. salivarious,; also recorded: S. sanguinis”. In the case of “1T-137 (PLNFYRAVKENRLPLSEKNINDFTNIKLKVSPKLINLLQESSIFYNFSPKKRNTN; synthetic novel tartgeting peptide IT-137)”, the “Target(s)” value is reported as “A. naeslundii, F. nucleatum,; also recorded: P. gingivalis; also recorded: S. epidermidis,; also recorded: S. gordonii, S. mitis, S. mutans,; also recorded: S. oralis, S. salivarious,; also recorded: S. sanguinis”. “1T-138 (YPNEYCIFLENLSLEELKEIKAINGETLNLEEIINERKNLKD; synthetic novel tartgeting peptide IT-138)” was tested, and the “Target(s)” value was “A. naeslundii, F. nucleatum,; also recorded: P. gingivalis; also recorded: S. epidermidis,; also recorded: S. gordonii, S. mitis, S. mutans,; also recorded: S. oralis, S. salivarious,; also recorded: S. sanguinis”. “1T-139 (AVAGAAVGALLGNDARSTAVGAAIGGALGAGAGELTKNK; synthetic novel tartgeting peptide IT-139)” was tested, and the “Target(s)” value was “A. naeslundiiS. gordonii,; also recorded: S. mitis, S. mutans, S. oralis”. In the case of “1T-140 (IKGTIAFVGEDYVEIRVDKGVKLTFRKSAIANVINNNQQ; synthetic novel tartgeting peptide IT-140)”, the “Target(s)” value is reported as “A. naeslundii, F. nucleatum,; also recorded: P. gingivalis; also recorded: S. epidermidis,; also recorded: S. gordonii, S. mitis, S. mutans,; also recorded: S. oralis, S. salivarious,; also recorded: S. sanguinis”. For “1T-141 (KKFIILLFILVQGLIFSATKTLSDIIAL; synthetic novel tartgeting peptide IT-141)”, the “Target(s)” value was “F. nucleatum, P. gingivalis; also recorded: S. epidermidis,; also recorded: S. gordonii, S. mitis, S. mutans,; also recorded: S. oralis, S. sanguinis”. For “1T-142 (FTQGIKRIVLKRLKED; synthetic novel tartgeting peptide IT-142)”, the “Target(s)” value was “A. naeslundii, F. nucleatum,; also recorded: P. gingivalis,; also recorded: T. denticolaS. gordonii,; also recorded: S. mitis, S. mutans, S. oralis,; also recorded: S. salivarious, S. sanguinis”. For “1T-143 (MPKRHYYKLEAKALQFGLPFAYSPIQLLK; synthetic novel tartgeting peptide IT-143)”, the “Target(s)” value was “A. naeslundii, F. nucleatum,; also recorded: P. gingivalis; also recorded: S. epidermidis,; also recorded: S. gordonii, S. mitis, S. mutans,; also recorded: S. oralis, S. salivarious,; also recorded: S. sanguinis”.
